Laboratory results published in ChEMBL document CHEMBL1201862, “PubChem BioAssay data set” (2004).
Values belong to the molecule of their own block, whether it stands above or below them. The source made the active and inactive calls.

Legend:
[1] = molecular target: T1, Tyrosine-protein phosphatase non-receptor type 22 (Homo sapiens, UniProt Q9Y2R2); experiment: PubChem AID 2140
T1 sequence (Q9Y2R2 whole entry): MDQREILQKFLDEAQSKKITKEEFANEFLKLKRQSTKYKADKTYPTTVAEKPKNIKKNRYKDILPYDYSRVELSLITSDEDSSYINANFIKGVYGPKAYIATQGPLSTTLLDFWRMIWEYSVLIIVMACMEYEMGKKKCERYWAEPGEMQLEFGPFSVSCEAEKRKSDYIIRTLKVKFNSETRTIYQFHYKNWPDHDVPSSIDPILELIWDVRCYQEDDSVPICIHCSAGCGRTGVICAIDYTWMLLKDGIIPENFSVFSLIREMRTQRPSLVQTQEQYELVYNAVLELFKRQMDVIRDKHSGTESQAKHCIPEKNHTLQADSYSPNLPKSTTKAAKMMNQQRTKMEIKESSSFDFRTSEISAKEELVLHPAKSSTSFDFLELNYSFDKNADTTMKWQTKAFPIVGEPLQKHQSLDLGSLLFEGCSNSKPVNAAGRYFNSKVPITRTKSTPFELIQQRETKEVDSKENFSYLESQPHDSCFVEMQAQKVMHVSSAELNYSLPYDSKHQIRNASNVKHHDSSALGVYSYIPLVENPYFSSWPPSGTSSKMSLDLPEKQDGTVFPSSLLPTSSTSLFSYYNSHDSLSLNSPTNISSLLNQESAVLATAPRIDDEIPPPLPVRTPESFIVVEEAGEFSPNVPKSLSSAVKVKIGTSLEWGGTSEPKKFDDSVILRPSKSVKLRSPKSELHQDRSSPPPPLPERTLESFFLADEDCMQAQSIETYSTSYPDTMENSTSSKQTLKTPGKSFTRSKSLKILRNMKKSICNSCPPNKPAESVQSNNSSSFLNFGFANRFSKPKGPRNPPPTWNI

[2] = molecular target: T1, Tyrosine-protein phosphatase non-receptor type 22; experiment: PubChem AID 2135
[3] = molecular target: T1, Tyrosine-protein phosphatase non-receptor type 22; experiment: inhibition of lymphoid tyrosine phosphatase LYP – biochemical, pCAP fluorogenic substrate, fluorescence, set 3, SAR follow-up (AID 449727); type: functional
[4] = molecular target: T2, Kappa-type opioid receptor (Homo sapiens, UniProt P41145); experiment: kappa opioid receptor activation by imaging – image-based, set 3, SAR follow-up (AID 488833); type: functional
T2 sequence (P41145 whole entry): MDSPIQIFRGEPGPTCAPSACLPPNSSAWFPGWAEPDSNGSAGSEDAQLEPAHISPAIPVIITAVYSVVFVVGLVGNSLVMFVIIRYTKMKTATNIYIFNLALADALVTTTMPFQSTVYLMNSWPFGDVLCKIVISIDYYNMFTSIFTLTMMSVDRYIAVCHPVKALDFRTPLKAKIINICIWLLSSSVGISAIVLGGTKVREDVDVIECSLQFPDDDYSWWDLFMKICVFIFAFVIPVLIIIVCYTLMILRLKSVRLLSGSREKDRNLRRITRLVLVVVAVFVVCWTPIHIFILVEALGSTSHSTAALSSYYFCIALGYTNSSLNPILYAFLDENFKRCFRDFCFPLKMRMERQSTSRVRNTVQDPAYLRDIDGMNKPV

[5] = molecular target: Delta-type opioid receptor (Homo sapiens, UniProt P41143); experiment: SAR Analysis of Agonists of the DOR Receptor using an Image-Based Assay - Set 3. [Related pubchem assays (depositor defined):AID1777, AID1786]; type: functional
Chain of Delta-type opioid receptor (P41143 whole entry): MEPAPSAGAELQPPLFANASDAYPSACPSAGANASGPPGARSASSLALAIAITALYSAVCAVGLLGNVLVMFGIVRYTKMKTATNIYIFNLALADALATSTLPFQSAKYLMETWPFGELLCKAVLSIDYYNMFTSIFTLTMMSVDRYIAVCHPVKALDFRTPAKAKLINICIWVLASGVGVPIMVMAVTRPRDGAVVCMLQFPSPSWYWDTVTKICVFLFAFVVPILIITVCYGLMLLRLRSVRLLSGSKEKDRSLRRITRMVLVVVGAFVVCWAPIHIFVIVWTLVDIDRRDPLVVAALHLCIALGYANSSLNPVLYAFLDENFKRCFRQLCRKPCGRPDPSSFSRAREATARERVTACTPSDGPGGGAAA

[6] = molecular target: T2, Kappa-type opioid receptor; experiment: SAR analysis of small molecule agonists of the kappa opioid receptor via a luminescent beta-arrestin assay - Set 3. [Related pubchem assays (depositor defined):AID1777, AID1785, AID1786, AID1966, AID2133, AID2136, AID2284, AID2500]; type: functional
[7] = molecular target: Mu-type opioid receptor (Homo sapiens, UniProt P35372); experiment: SAR Analysis of Agonists of the MOR Receptor using an Image-Based Assay - Set 3. [Related pubchem assays (depositor defined):AID1777, AID1785, AID1786, AID1966, AID2133, AID2136, AID2284, AID2285, AID2352]; type: functional
Chain of Mu-type opioid receptor (P35372 whole entry): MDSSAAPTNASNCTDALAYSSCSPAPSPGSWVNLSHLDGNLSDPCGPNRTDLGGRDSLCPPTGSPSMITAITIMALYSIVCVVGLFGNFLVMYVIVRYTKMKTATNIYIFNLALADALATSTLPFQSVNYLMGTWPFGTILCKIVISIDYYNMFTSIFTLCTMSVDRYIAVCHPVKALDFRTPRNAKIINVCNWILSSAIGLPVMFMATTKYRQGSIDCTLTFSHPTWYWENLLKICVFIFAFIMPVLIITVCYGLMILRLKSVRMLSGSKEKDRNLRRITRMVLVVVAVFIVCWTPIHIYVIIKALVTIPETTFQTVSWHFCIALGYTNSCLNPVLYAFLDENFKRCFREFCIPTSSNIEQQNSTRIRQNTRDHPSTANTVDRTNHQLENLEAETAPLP

[8] = molecular target: T3, Voltage-dependent T-type calcium channel subunit alpha-1H (Homo sapiens, UniProt O95180); experiment: human CACNA1H calcium influx blockade – cell-based, synthetic library set 1, calcium flux (AID 493022); type: functional
T3 sequence (O95180 whole entry): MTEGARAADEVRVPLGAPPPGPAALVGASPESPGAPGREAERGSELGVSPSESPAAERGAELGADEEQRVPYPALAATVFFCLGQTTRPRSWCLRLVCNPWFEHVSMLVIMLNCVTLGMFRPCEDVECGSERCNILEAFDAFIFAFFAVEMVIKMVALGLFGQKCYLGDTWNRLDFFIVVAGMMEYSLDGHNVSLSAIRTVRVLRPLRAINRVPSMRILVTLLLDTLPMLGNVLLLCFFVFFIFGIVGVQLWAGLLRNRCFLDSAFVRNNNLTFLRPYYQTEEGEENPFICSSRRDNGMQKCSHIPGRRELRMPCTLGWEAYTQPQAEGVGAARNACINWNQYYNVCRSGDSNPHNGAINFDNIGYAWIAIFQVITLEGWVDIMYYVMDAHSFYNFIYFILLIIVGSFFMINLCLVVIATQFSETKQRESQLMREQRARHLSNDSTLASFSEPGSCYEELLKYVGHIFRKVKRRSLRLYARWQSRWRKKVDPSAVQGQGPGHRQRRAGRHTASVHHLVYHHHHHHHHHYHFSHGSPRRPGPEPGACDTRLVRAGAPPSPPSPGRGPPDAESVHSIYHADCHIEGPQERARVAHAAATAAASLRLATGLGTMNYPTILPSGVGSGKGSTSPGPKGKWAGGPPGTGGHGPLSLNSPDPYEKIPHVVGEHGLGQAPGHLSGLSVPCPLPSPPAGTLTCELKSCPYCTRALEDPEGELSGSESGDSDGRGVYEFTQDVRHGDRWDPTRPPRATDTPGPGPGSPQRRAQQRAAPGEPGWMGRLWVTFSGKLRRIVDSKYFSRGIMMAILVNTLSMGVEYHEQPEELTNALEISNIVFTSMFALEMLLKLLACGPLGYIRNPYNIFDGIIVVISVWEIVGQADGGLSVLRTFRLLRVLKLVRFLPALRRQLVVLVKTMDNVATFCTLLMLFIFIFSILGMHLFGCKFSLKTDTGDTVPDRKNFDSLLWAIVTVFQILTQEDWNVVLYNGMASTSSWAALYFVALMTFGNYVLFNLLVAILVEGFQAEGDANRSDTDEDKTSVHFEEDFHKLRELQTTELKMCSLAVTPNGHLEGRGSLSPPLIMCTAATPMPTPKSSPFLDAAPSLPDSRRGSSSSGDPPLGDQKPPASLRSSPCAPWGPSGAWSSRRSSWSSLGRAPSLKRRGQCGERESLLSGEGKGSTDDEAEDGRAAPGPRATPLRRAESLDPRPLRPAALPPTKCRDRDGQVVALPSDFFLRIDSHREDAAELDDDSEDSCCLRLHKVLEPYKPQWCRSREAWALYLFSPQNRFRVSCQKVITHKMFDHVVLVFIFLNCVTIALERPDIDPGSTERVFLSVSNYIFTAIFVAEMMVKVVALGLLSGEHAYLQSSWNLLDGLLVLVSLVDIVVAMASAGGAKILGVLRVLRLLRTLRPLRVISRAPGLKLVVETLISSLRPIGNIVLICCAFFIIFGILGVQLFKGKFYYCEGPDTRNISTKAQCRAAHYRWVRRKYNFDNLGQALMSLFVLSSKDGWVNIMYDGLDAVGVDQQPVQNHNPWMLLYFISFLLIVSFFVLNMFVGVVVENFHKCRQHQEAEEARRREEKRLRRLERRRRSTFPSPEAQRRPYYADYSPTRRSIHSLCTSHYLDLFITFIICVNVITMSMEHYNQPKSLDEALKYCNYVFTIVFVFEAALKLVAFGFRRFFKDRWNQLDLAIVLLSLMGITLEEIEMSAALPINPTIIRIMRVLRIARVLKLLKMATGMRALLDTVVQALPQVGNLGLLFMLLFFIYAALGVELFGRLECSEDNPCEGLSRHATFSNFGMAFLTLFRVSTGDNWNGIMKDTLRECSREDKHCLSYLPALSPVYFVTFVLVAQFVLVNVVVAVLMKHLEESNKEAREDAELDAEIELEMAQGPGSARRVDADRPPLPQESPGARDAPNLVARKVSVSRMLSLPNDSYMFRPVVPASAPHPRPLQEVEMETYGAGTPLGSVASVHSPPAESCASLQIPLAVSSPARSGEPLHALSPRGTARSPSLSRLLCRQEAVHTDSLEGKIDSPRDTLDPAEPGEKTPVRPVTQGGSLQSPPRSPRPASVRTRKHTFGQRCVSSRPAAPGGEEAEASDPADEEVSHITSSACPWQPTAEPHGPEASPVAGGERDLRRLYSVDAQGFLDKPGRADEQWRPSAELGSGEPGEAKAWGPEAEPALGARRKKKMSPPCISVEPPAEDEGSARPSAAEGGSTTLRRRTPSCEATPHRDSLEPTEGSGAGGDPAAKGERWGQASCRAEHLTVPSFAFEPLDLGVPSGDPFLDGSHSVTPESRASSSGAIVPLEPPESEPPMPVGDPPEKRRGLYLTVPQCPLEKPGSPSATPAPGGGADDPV

[9] = molecular target: T3, Voltage-dependent T-type calcium channel subunit alpha-1H; experiment: human CACNA1H calcium influx blockade – cell-based, synthetic library set 2, HEK293 HH8, Fluo-4, SAR follow-up (AID 493023); type: functional
[10] = tested on: Trypanosoma cruzi; experiment: anti-trypanosomal activity in host cells – cell-based, plate reader, dry powder, set 3, dose response (AID 493197); type: functional
[11] = NIH/3T3 cell viability loss – mouse embryonic fibroblasts, dry powder, set 2, cytotoxicity control, dose response (AID 493247); type: functional, cell-based; details: Fibroblast

IC50 [1]: 43.4 µM (active) | IC50 [2]: > 100 µM (inactive) | IC50 [3]: > 100 µM (inactive)
SMILES: CCOc1ccc2nc(NC(=O)CSC3=Nc4sc(C)c(C)c4C(=O)C3)sc2c1

EC50 [4]: 2.26 µM (active) | EC50 [5]: > 32 µM (inactive) | EC50 [6]: 4.46 µM (active) | EC50 [7]: > 32 µM (inactive)
SMILES: Fc1ccc(CSc2nnc(-c3ccccn3)n2Cc2cccs2)c(C(F)(F)F)c1

EC50 [8]: 1.5 µM (active)
SMILES: O=C(COc1ccc(Cl)cc1)Nc1nnc(-c2ccc(F)c(F)c2)o1

EC50 [9]: 10 µM (active)
SMILES: CC(C)(C)CCN1CCC[C@H](NC(=O)COc2ccccc2F)C1

SMILES: CN(Cc1ccccc1)C(=O)C1CCCN(Cc2ccc(Br)cc2)C1 (stereo unspecified)
AC50 [10]: 3.01 µM (active) | AC50 [11]: 74.3 µM (active)
